# In patent publication US12258328B2, “6-membered heteroaryl-containing aminopyridine compounds as EGFR inhibitors” (YUHAN CORPORATION, priority 2021, dated 2025):
# pIC50: −log10 of the molar value. Where two headings read alike, the source gives them in different places.
# Experiments:
# [1] = target: EGFR wildtype (Homo sapiens, UniProt P00533); assay: Biochemical EGFR kinase assay (Lance Ultra TR-FRET), wildtype
# Procedure, shortened: (§1)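 Kinase activity is measured by TR-FRET phosphopeptide detection. Compounds span 0.003 μM to 10 μM; the 1 h reaction at room temperature is quenched with EDTA, then labelled antibody (2 nM) is incubated 60 min before reading.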
# [2] = target: EGFR L858R/T790M/C797S (Homo sapiens, UniProt P00533, C797S/L858R/T790M); assay: Biochemical EGFR kinase assay (Lance Ultra TR-FRET), triple mutant L858R/T790M/C797S
# Chain of EGFR L858R/T790M/C797S (P00533 25-1210 T790M/C797S/L858R): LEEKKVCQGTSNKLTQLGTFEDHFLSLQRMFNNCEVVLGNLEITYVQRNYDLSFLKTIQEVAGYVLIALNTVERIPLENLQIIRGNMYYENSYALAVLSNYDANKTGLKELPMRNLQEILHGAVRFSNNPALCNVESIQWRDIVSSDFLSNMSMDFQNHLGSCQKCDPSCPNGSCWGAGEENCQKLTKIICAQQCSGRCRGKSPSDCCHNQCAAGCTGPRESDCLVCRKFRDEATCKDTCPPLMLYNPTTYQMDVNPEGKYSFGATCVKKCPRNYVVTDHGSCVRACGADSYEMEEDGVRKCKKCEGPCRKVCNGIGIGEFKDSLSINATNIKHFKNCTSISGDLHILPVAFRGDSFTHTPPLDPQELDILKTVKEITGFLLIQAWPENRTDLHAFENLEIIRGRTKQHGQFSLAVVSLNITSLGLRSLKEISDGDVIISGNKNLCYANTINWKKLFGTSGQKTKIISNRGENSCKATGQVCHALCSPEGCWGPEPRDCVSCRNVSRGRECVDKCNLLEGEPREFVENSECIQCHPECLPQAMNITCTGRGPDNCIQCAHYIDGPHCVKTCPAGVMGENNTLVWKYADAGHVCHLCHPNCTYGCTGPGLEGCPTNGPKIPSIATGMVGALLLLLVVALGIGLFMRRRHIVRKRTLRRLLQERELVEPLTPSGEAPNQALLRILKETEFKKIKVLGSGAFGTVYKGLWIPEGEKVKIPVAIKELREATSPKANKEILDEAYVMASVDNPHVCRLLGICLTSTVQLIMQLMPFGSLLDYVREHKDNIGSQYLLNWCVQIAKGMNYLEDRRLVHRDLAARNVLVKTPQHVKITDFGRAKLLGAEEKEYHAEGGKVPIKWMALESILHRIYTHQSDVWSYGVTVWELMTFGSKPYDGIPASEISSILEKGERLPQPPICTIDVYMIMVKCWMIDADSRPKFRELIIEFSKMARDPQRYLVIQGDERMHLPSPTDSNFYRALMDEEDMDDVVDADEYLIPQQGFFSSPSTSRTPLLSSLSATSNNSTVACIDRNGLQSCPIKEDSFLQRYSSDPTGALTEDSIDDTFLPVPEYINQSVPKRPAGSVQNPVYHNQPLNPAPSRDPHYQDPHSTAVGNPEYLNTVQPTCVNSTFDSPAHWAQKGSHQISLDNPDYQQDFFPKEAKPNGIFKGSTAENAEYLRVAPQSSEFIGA
# Procedure, shortened: as §1
# [3] = target: EGFR del19/C797S (Homo sapiens, UniProt P00533, C797S/DEL746-750); assay: Biochemical EGFR kinase assay (Lance Ultra TR-FRET), double mutant del19/C797S
# Procedure, shortened: as §1
# [4] = target: EGFR del19/T790M/C797S (Homo sapiens, UniProt P00533, C797S/DEL746-750/T790M); assay: Biochemical EGFR kinase assay (Lance Ultra TR-FRET), triple mutant del19/T790M/C797S
# Chain of EGFR del19/T790M/C797S (P00533 with tags, fused parts or gaps DEL746-750/T790M/C797S): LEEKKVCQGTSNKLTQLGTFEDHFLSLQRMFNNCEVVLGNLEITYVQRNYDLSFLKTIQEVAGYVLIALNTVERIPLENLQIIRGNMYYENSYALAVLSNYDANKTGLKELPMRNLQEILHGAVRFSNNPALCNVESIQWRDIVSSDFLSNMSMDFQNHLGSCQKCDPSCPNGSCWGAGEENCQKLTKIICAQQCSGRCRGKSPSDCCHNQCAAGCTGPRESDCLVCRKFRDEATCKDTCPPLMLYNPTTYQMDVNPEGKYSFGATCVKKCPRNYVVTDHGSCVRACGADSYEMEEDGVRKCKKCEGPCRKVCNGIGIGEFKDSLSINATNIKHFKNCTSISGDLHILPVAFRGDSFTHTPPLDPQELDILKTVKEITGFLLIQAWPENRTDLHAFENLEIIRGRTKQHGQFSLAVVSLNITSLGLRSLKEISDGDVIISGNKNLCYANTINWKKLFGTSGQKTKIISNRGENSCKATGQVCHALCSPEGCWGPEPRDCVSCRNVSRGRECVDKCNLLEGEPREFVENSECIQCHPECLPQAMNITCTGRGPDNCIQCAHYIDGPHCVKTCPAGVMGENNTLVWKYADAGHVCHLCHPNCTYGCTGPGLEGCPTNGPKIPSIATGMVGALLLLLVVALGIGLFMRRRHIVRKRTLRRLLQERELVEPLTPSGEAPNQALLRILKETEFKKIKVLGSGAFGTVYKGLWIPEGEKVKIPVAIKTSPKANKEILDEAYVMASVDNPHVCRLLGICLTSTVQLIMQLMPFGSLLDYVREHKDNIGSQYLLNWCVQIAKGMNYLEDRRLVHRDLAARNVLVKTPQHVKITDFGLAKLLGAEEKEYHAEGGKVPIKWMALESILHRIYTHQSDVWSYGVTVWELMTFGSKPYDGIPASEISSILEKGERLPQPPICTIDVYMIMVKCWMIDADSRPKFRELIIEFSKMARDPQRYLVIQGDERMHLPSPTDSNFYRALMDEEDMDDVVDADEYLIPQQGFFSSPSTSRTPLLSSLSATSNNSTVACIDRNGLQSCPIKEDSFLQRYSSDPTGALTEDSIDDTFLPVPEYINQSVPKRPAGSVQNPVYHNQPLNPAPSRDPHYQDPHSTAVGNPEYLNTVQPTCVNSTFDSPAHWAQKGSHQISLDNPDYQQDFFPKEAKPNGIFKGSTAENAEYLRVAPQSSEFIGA
# Procedure, shortened: as §1
# [5] = target: EGFR L858R/C797S (Homo sapiens, UniProt P00533, C797S/L858R); assay: Biochemical EGFR kinase assay (Lance Ultra TR-FRET), double mutant L858R/C797S
# Chain of EGFR L858R/C797S (P00533 25-1210 C797S/L858R): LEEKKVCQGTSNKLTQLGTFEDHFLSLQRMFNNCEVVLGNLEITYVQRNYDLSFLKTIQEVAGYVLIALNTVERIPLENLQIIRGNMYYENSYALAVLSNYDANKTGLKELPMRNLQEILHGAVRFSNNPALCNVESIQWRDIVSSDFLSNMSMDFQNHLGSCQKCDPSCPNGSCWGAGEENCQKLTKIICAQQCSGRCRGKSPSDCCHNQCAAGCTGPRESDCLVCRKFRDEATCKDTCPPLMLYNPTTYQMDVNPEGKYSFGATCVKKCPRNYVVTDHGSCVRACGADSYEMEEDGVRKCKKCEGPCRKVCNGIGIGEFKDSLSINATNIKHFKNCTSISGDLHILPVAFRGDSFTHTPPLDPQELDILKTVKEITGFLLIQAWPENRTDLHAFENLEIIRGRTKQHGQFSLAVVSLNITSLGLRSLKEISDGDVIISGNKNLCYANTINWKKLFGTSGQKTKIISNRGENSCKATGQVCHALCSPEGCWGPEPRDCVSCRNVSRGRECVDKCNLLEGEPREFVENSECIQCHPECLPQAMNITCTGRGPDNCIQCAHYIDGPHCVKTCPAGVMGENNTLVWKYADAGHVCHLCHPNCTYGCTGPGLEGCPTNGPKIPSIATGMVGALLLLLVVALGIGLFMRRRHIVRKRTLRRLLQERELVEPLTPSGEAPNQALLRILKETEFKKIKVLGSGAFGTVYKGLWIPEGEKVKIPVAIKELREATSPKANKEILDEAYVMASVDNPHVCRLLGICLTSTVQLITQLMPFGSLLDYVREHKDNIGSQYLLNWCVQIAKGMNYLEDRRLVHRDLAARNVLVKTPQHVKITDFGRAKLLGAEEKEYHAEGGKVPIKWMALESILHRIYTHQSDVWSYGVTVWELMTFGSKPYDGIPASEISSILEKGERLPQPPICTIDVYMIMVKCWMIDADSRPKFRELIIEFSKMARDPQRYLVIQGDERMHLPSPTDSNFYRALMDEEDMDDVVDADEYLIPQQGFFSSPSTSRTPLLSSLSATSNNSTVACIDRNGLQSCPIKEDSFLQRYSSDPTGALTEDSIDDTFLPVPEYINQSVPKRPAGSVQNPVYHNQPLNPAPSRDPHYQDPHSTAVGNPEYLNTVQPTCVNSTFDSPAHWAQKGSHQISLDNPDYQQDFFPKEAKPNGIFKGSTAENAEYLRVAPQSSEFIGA
# Procedure, shortened: as §1
# [6] = ATP at Km, read-out: IC50 WT, Km ATP
# [7] = ATP at Km, read-out: IC50 L858R/T790M/C797S, Km ATP
# [8] = ATP at Km, read-out: IC50 del19/C797S, Km ATP
# [9] = ATP at Km, read-out: IC50 del19/T790M/C797S, Km ATP
# [10] = ATP at Km, read-out: IC50 L858R/C797S, Km ATP
# [11] = IC50 L858R/T790M/C797S, 100 μM ATP
# [12] = IC50 del19/T790M/C797S, 100 μM ATP
# Chain of EGFR wildtype (P00533 25-1210): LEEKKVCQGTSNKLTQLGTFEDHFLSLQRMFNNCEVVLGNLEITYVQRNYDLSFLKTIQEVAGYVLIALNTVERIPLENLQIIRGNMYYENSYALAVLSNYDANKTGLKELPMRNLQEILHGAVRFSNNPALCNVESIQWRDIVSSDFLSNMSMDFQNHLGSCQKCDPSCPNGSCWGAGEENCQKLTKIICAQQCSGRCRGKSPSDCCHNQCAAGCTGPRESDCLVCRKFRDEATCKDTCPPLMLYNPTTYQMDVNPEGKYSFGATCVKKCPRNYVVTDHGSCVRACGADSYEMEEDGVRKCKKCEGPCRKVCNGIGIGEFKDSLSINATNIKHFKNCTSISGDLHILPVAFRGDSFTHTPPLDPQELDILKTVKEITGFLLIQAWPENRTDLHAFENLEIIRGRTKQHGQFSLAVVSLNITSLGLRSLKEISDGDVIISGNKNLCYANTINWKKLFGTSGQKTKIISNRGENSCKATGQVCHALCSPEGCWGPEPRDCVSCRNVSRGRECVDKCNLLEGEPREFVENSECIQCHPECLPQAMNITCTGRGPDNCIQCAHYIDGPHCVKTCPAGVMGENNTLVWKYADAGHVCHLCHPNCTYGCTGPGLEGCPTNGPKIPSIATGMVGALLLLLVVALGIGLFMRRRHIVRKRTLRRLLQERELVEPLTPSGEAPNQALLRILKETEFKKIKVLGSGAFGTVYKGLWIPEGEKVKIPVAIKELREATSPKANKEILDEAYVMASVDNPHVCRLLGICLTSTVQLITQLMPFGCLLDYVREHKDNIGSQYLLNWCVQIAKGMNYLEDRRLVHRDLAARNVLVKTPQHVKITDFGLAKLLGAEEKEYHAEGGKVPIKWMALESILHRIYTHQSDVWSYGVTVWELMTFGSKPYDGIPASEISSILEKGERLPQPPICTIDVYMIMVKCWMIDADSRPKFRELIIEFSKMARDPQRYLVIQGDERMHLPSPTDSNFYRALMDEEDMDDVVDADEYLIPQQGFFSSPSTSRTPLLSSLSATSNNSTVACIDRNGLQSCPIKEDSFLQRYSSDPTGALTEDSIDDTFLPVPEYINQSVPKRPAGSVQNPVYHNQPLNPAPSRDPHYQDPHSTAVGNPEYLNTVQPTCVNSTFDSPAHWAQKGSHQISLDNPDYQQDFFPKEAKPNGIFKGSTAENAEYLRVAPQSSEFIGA
Structure (SMILES),"pIC50 [1, 6]","pIC50 ([1]; read-out: IC50 WT, 100 μM ATP)","pIC50 [2, 7]","pIC50 ([2]; read-out: IC50 L858R/T790M/C797S, 100 μM ATP)","pIC50 [3, 8]","pIC50 ([3]; read-out: IC50 del19/C797S, 100 μM ATP)","pIC50 [4, 9]","pIC50 ([4]; read-out: IC50 del19/T790M/C797S, 100 μM ATP)","pIC50 [5, 10]","pIC50 ([5]; read-out: IC50 L858R/C797S, 100 μM ATP)","pIC50 ([1]; IC50 WT, 100 μM ATP)","pIC50 [2, 11]","pIC50 ([3]; IC50 del19/C797S, 100 μM ATP)","pIC50 [4, 12]","pIC50 ([5]; IC50 L858R/C797S, 100 μM ATP)"
"CC(C)(O)[C@H]1CC[C@@H](Nc2cc(Nc3ccnc(-c4cnn(S(=O)(=O)C5CC5)c4)n3)ncc2-c2ccc(N3CC(F)(F)C3)cn2)CC1 [Example 225, 2-((1s,4s)-4-((6′-((2-(1-(Cyclopropylsulfonyl)-1H-pyrazol-4-yl)pyrimidin-4-yl)amino)-5-(3,3-difluoroazetidin-1-yl)-[2,3′-bipyridin]-4′-yl)amino)cyclohexyl)propan-2-ol]",7.47,< 5.00,8.60,8.36,7.79,7.70,8.16,8.22,7.99,6.10,,,,,
"CC1(O)CCC(Nc2cc(Nc3ccnc(-c4cnn(S(=O)(=O)C5CC5)c4)n3)ncc2-c2ccc(C(O)C(F)(F)F)cn2)CC1 (stereo not drawn) [Example 226, (1s,4s)-4-((6′-((2-(1-(Cyclopropylsulfonyl)-1H-pyrazol-4-yl)pyrimidin-4-yl)amino)-5-(2,2,2-trifluoro-1-hydroxyethyl)-[2,3′-bipyridin]-4′-yl)amino)-1-methylcyclohexan-1-ol]",8.31,,9.52,,,,9.10,,8.70,,5.29,9.30,8.33,9.10,8.08
"O=S(=O)(C1CC1)n1cc(-c2nccc(Nc3cc(NC4CCC(CO)CC4)c(-c4ccc(C(O)C(F)(F)F)cn4)cn3)n2)cn1 (stereo not drawn) [Example 227, 1-(6′-((2-(1-(Cyclopropylsulfonyl)-1H-pyrazol-4-yl)pyrimidin-4-yl)amino)-4′-(((1s,4s)-4-(hydroxymethyl)cyclohexyl)amino)-[2,3′-bipyridin]-5-yl)-2,2,2-trifluoroethan-1-ol]",8.28,,9.40,,8.72,,9.05,,8.60,,6.08,9.10,8.15,,8.00
"O=S(=O)(C1CC1)n1cc(-c2nccc(Nc3cc(N[C@H]4CCC[C@H](CO)C4)c(-c4ccc(C(O)C(F)(F)F)cn4)cn3)n2)cn1 (stereo partly drawn) [Example 228, 1-(6′-((2-(1-(Cyclopropylsulfonyl)-1H-pyrazol-4-yl)pyrimidin-4-yl)amino)-4′-(((1S,3S)-3-(hydroxymethyl)cyclohexyl)amino)-[2,3′-bipyridin]-5-yl)-2,2,2-trifluoroethan-1-ol]",7.71,,9.30,,8.25,,8.72,,7.91,,< 5.00,9.00,7.84,8.54,7.19
"CC(C)(O)C1CCC(Nc2cc(Nc3ccnc(-c4cnn(S(=O)(=O)C5CC5)c4)n3)ncc2-c2ccc(C(O)C(F)(F)F)cn2)CC1 (stereo not drawn) [Example 229, 2-((1s,4s)-4-((6′-((2-(1-(Cyclopropylsulfonyl)-1H-pyrazol-4-yl)pyrimidin-4-yl)amino)-5-(2,2,2-trifluoro-1-hydroxyethyl)-[2,3′-bipyridin]-4′-yl)amino)cyclohexyl)propan-2-ol]",7.76,,9.05,,8.32,,8.48,,7.94,,5.02,8.72,7.68,8.36,7.02
"CC1(O)CCC(Nc2cc(Nc3ccnc(-c4cnn(S(=O)(=O)C5CC5)c4)n3)ncc2-c2ccc(C(C)(O)C(F)(F)F)cn2)CC1 (stereo not drawn) [Example 230, (1s,4s)-4-((6′-((2-(1-(Cyclopropylsulfonyl)-1H-pyrazol-4-yl)pyrimidin-4-yl)amino)-5-(1,1,1-trifluoro-2-hydroxypropan-2-yl)-[2,3′-bipyridin]-4′-yl)amino)-1-methylcyclohexan-1-ol]",8.30,,9.40,,8.77,,8.96,,8.62,,5.78,9.22,8.22,,8.11
"CC(O)(c1ccc(-c2cnc(Nc3ccnc(-c4cnn(S(=O)(=O)C5CC5)c4)n3)cc2NC2CCC(CO)CC2)nc1)C(F)(F)F (stereo not drawn) [Example 231, 2-(6′-((2-(1-(Cyclopropylsulfonyl)-1H-pyrazol-4-yl)pyrimidin-4-yl)amino)-4′-(((1s,4s)-4-(hydroxymethyl)cyclohexyl)amino)-[2,3′-bipyridin]-5-yl)-1,1,1-trifluoropropan-2-ol]",8.39,,9.40,,8.77,,8.85,,8.92,,6.30,9.05,8.19,8.70,8.34
"CC(O)(c1ccc(-c2cnc(Nc3ccnc(-c4cnn(S(=O)(=O)C5CC5)c4)n3)cc2N[C@H]2CCC[C@H](CO)C2)nc1)C(F)(F)F (stereo partly drawn) [Example 232, 2-(6′-((2-(1-(Cyclopropylsulfonyl)-1H-pyrazol-4-yl)pyrimidin-4-yl)amino)-4′-(((1S,3S)-3-(hydroxymethyl)cyclohexyl)amino)-[2,3′-bipyridin]-5-yl)-1,1,1-trifluoropropan-2-ol]",7.72,,9.10,,8.48,,8.41,,8.17,,5.06,9.10,8.02,8.68,7.22
"CC(C)(O)C1CCC(Nc2cc(Nc3ccnc(-c4cnn(S(=O)(=O)C5CC5)c4)n3)ncc2-c2ccc(C(C)(O)C(F)(F)F)cn2)CC1 (stereo not drawn) [Example 233, 2-(6′-((2-(1-(Cyclopropylsulfonyl)-1H-pyrazol-4-yl)pyrimidin-4-yl)amino)-4′-(((1s,4s)-4-(2-hydroxypropan-2-yl)cyclohexyl)amino)-[2,3′-bipyridin]-5-yl)-1,1,1-trifluoropropan-2-ol]",7.74,,9.05,,8.15,,8.33,,8.33,,5.17,8.57,7.72,8.20,7.44
"CN(C)CC1CCC(Nc2cc(Nc3ccnc(-c4cnn(S(=O)(=O)C5CC5)c4)n3)ncc2-c2ccc(C(C)(O)C(F)(F)F)cn2)CC1 (stereo not drawn) [Example 234, 2-(6′-((2-(1-(Cyclopropylsulfonyl)-1H-pyrazol-4-yl)pyrimidin-4-yl)amino)-4′-(((1s,4s)-4-((dimethylamino)methyl)cyclohexyl)amino)-[2,3′-bipyridin]-5-yl)-1,1,1-trifluoropropan-2-ol]",9.15,,9.70,,9.70,,9.30,,9.52,,6.91,9.70,9.30,9.52,9.15
"CC(C)(F)c1ccc(-c2cnc(Nc3ccnc(-c4cnn(S(=O)(=O)C5CC5)c4)n3)cc2N[C@H]2CC[C@@H](CO)CC2)nc1 [Example 235, ((1s,4s)-4-((6′-((2-(1-(Cyclopropylsulfonyl)-1H-pyrazol-4-yl)pyrimidin-4-yl)amino)-5-(2-fluoropropan-2-yl)-[2,3′-bipyridin]-4′-yl)amino)cyclohexyl)methanol]",8.31,,9.10,,8.51,,9.00,,9.00,,6.16,8.57,,,8.09
